Patent publication US20230277534A1 (Plexxikon Inc., priority 2011, published 2023)

Assays:
B-Raf V600E = B-Raf V600E (Homo sapiens (Human), UniProt P15056, V600E); test: B-Raf V600E kinase biochemical activity assay (AlphaScreen, biotin-MEK1 substrate); details: 100 μM ATP
Method in brief: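 IC50 was derived from AlphaScreen signal (anti-phospho-MEK1/2 antibody with streptavidin donor and Protein A acceptor beads, 3 h) across 8 compound concentrations. The kinase step ran 45 min at room temperature: 0.1 ng B-Raf V600E, 100 nM biotin-MEK1, 100 μM final ATP, pH 7.0 HEPES with MgCl2/MnCl2.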

[1] = system: COLO205 colon adenocarcinoma cells (B-Raf V600E mutation); test: COLO205 cell growth inhibition (ATPlite); type: cell-based; details: Homo sapiens, COLO 205, 72 h, 3 days
Experimental: Compounds are assessed in a variety of cell based assays.
On day 1, cells are counted, then centrifuged in a conical tube for 5 minutes at 1000 rpm.
On day 2, compound at a maximum concentration of 5 mM is serially diluted 1:3 (e.g. 10 μL with 30 μL dimethyl sulfoxide) for a total of 8 point titration with DMSO as a control. A 1 μL aliquot of each dilution point and control is added to 249 μL growth media and 50 μL is added to a well containing cells, providing 10 μM compound at the maximum concentration point. The cells are incubated for 3 days at 37° C. in 5% CO2.
ATPlite is added 25 μL to each well, shake for 2 minutes, and the cells are incubated at room temperature for 10 minutes, then luminescence is read on Safire reader. The measured luminescence correlates directly with cell number, such that the reading as a function of compound concentration is used to determine the IC50 value.

Chain of B-Raf V600E (P15056 whole entry V600E): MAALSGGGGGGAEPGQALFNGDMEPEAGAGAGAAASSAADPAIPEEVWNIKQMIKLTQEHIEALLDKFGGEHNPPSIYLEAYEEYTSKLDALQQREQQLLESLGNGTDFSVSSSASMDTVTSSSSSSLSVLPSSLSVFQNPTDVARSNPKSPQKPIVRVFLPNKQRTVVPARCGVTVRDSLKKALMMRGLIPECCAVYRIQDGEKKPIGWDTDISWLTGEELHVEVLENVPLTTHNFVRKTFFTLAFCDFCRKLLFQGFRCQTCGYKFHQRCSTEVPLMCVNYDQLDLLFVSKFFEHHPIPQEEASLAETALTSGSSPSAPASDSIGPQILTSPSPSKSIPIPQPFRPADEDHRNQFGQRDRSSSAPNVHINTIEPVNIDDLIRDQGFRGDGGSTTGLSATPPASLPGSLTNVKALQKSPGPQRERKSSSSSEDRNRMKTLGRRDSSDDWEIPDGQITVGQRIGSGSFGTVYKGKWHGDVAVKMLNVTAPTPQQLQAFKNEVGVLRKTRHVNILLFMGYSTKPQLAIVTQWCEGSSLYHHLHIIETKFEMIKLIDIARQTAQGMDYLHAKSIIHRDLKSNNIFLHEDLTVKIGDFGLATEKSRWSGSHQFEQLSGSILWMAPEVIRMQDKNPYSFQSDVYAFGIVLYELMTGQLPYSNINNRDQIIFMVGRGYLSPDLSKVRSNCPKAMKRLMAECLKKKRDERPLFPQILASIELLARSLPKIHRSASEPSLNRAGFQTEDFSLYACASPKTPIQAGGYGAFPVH

SMILES	IC50 (B-Raf V600E) [µM]	IC50 [1] [µM]
Cc1ccnc(-c2cnc3[nH]cc(C(=O)c4cccc(NS(=O)(=O)N5CCCC5)c4F)c3c2)n1 [Compound P-0326, N-[2-fluoro-3-[5-(4-methylpyrimidin-2-yl)-1H-pyrrolo[2,3-b]pyridine-3-carbonyl]phenyl]pyrrolidine-1-sulfonamide]	< 0.1	> 1
Cc1ncc(-c2cnc3[nH]cc(C(=O)c4cccc(NS(=O)(=O)N5CCCC5)c4F)c3c2)cn1 [Compound P-0092, N-[2-fluoro-3-[5-(2-methylpyrimidin-5-yl)-1H-pyrrolo[2,3-b]pyridine-3-carbonyl]phenyl]pyrrolidine-1-sulfonamide]	< 0.1	< 1
CCN(C)S(=O)(=O)Nc1ccc(F)c(C(=O)c2c[nH]c3ncc(-c4cnc(C5CC5)nc4)cc23)c1F [Compound P-0240, 5-(2-cyclopropylpyrimidin-5-yl)-3-[3-[[ethyl(methyl)sulfamoyl]amino]-2,6-difluoro-benzoyl]-1H-pyrrolo[2,3-b]pyridine]	< 0.1	< 1
CCN(C)S(=O)(=O)Nc1ccc(F)c(C(=O)c2c[nH]c3ncc(-c4ccc(OC)nn4)cc23)c1F [Compound P-0317, 3-[3-[[ethyl(methyl)sulfamoyl]amino]-2,6-difluoro-benzoyl]-5-(6-methoxypyridazin-3-yl)-1H-pyrrolo[2,3-b]pyridine]	< 0.1	< 1
CN(C)S(=O)(=O)Nc1cccc(C(=O)c2c[nH]c3ncc(-c4ccc(C#N)nc4)cc23)c1F [Compound P-0099, 5-(6-cyano-3-pyridyl)-3-[3-(dimethylsulfamoylamino)-2-fluoro-benzoyl]-1H-pyrrolo[2,3-b]pyridine]	< 0.1	> 1
CCN(C)S(=O)(=O)Nc1ccc(F)c(C(=O)c2c[nH]c3ncc(-c4ccc(-c5noc(C)n5)s4)cc23)c1F [Compound P-0310, 3-[5-[3-[3-[[ethyl(methyl)sulfamoyl]amino]-2,6-difluoro-benzoyl]-1H-pyrrolo[2,3-b]pyridin-5-yl]-2-thienyl]-5-methyl-1,2,4-oxadiazole]	< 0.1	< 1
CCN(C)S(=O)(=O)Nc1cccc(C(=O)c2c[nH]c3ncnc(N[C@@H](C)C4CC4)c23)c1F [Compound P-0089, 4-[[(1S)-1-cyclopropylethyl]amino]-5-[3-[[ethyl(methyl)sulfamoyl]amino]-2-fluoro-benzoyl]-7H-pyrrolo[2,3-d]pyrimidine]	< 0.1	> 1
CCN(C)S(=O)(=O)Nc1ccc(F)c(C(=O)c2c[nH]c3ncc(-c4cncs4)cc23)c1F [Compound P-0315, 5-[3-[3-[[ethyl(methyl)sulfamoyl]amino]-2,6-difluoro-benzoyl]-1H-pyrrolo[2,3-b]pyridin-5-yl]thiazole]	< 0.1	< 1
NC(=O)C1(c2ccc(-c3cnc4[nH]cc(C(=O)c5cccc(NS(=O)(=O)N6CCCC6)c5F)c4c3)cc2)CC1 [Compound P-0253, 1-[4-[3-[2-fluoro-3-(pyrrolidin-1-ylsulfonylamino)benzoyl]-1H-pyrrolo[2,3-b]pyridin-5-yl]phenyl]cyclopropanecarboxamide]	< 0.1	> 1
COCCN(C)S(=O)(=O)Nc1cccc(C(=O)c2c[nH]c3ncc(-c4cnc(NC5CC5)nc4)cc23)c1F [Compound P-0081, 5-[2-(cyclopropylamino)pyrimidin-5-yl]-3-[2-fluoro-3-[[2-methoxyethyl(methyl)sulfamoyl]amino]benzoyl]-1H-pyrrolo[2,3-b]pyridine]	< 0.1	< 1

More lines, now with the values ahead:

IC50 (B-Raf V600E) [µM]	IC50 [1] [µM]	SMILES
< 0.1	< 1	CN(C)S(=O)(=O)Nc1cccc(C(=O)c2c[nH]c3ncc(I)cc23)c1F [Compound P-0110, 3-[3-(dimethylsulfamoylamino)-2-fluoro-benzoyl]-5-iodo-1H-pyrrolo[2,3-b]pyridine]
< 0.1	< 1	CCN(C)S(=O)(=O)Nc1ccc(F)c(C(=O)c2c[nH]c3ncc(-c4ccnc(F)c4)cc23)c1F [Compound P-0283, 3-[3-[[ethyl(methyl)sulfamoyl]amino]-2,6-difluoro-benzoyl]-5-(2-fluoro-4-pyridyl)-1H-pyrrolo[2,3-b]pyridine]
< 0.1	> 1	COCCS(=O)(=O)Nc1cccc(C(=O)c2c[nH]c3ncc(-c4cnc(OC)nc4)cc23)c1F [Compound P-0065, N-[2-fluoro-3-[5-(2-methoxypyrimidin-5-yl)-1H-pyrrolo[2,3-b]pyridine-3-carbonyl]phenyl]-2-methoxy-ethanesulfonamide]
< 0.1	< 1	CC1CCN(S(=O)(=O)Nc2cccc(C(=O)c3c[nH]c4ncc(-c5cnc(C6CC6)nc5)cc34)c2F)C1 (stereo not shown) [Compound P-0247, N-[3-[5-(2-cyclopropylpyrimidin-5-yl)-1H-pyrrolo[2,3-b]pyridine-3-carbonyl]-2-fluoro-phenyl]-3-methyl-pyrrolidine-1-sulfonamide]
< 0.1	< 1	O=C(c1cccc(NS(=O)(=O)N2CCCC2)c1F)c1c[nH]c2ncc(-c3cnc(N4CCCC4)nc3)cc12 [Compound P-0109, N-[2-fluoro-3-[5-(2-pyrrolidin-1-ylpyrimidin-5-yl)-1H-pyrrolo[2,3-b]pyridine-3-carbonyl]phenyl]pyrrolidine-1-sulfonamide]
< 0.1	< 1	CCN(C)S(=O)(=O)Nc1ccc(F)c(C(=O)c2c[nH]c3ncc(-c4ccc(-c5nnc(NC)s5)cc4)cc23)c1F [Compound P-0305, 2-[4-[3-[3-[[ethyl(methyl)sulfamoyl]amino]-2,6-difluoro-benzoyl]-1H-pyrrolo[2,3-b]pyridin-5-yl]phenyl]-5-(methylamino)-1,3,4-thiadiazole]
< 0.1	> 1	CCN(C)S(=O)(=O)Nc1cccc(C(=O)c2c[nH]c3ncc(C4CC4)cc23)c1F [Compound P-0298, 5-cyclopropyl-3-[3-[[ethyl(methyl)sulfamoyl]amino]-2-fluoro-benzoyl]-1H-pyrrolo[2,3-b]pyridine]
< 0.1	< 1	CCN(C)S(=O)(=O)Nc1ccc(F)c(C(=O)c2c[nH]c3ncc(-c4cncc(C(C)(C)O)c4)cc23)c1F [Compound P-0306, 3-[3-[[ethyl(methyl)sulfamoyl]amino]-2,6-difluoro-benzoyl]-5-[5-(1-hydroxy-1-methyl-ethyl)-3-pyridyl]-1H-pyrrolo[2,3-b]pyridine]
< 0.1	< 1	CCN(C)S(=O)(=O)Nc1ccc(F)c(C(=O)c2c[nH]c3ncc(-c4cnc(N5CCOCC5)nc4)cc23)c1F [Compound P-0258, 4-[5-[3-[3-[[ethyl(methyl)sulfamoyl]amino]-2,6-difluoro-benzoyl]-1H-pyrrolo[2,3-b]pyridin-5-yl]pyrimidin-2-yl]morpholine]
< 0.1	> 1	Nc1cc(-c2cnc3[nH]cc(C(=O)c4cccc(NS(=O)(=O)N5CCCC5)c4F)c3c2)ncn1 [Compound P-0299, N-[3-[5-(6-aminopyrimidin-4-yl)-1H-pyrrolo[2,3-b]pyridine-3-carbonyl]-2-fluoro-phenyl]pyrrolidine-1-sulfonamide]
> 0.1	> 1	COc1ncc(-c2cnc3[nH]cc(C(=O)c4cccc(NS(=O)(=O)N(C)CC(C)C)c4F)c3c2)cn1 [Compound P-0072, 3-[2-fluoro-3-[[isobutyl(methyl)sulfamoyl]amino]benzoyl]-5-(2-methoxypyrimidin-5-yl)-1H-pyrrolo[2,3-b]pyridine]
< 0.1	< 1	O=C(c1c(F)ccc(NS(=O)(=O)N2CC[C@@H](F)C2)c1F)c1c[nH]c2ncc(-c3cnc(C4CC4)nc3)cc12 [Compound P-0338, (3R)—N-[3-[5-(2-cyclopropylpyrimidin-5-yl)-1H-pyrrolo[2,3-b]pyridine-3-carbonyl]-2,4-difluoro-phenyl]-3-fluoro-pyrrolidine-1-sulfonamide]
< 0.1	< 1	CCC(C)S(=O)(=O)Nc1cccc(C(=O)c2c[nH]c3ncc(-c4ccc(C5(C#N)CC5)cc4)cc23)c1F (stereo not shown) [Compound P-0227, N-[3-[5-[4-(1-cyanocyclopropyl)phenyl]-1H-pyrrolo[2,3-b]pyridine-3-carbonyl]-2-fluoro-phenyl]butane-2-sulfonamide]
< 0.1	< 1	O=C(c1c(F)ccc(NS(=O)(=O)N2CC[C@H](F)C2)c1F)c1c[nH]c2ncc(-c3cnc(C4CC4)nc3)cc12 [Compound P-0289, (3S)—N-[3-[5-(2-cyclopropylpyrimidin-5-yl)-1H-pyrrolo[2,3-b]pyridine-3-carbonyl]-2,4-difluoro-phenyl]-3-fluoro-pyrrolidine-1-sulfonamide]
< 0.1	< 1	CCN(C)S(=O)(=O)Nc1ccc(F)c(C(=O)c2c[nH]c3ncc(-c4ccc5nc(N(C)C)ncc5c4)cc23)c1F [Compound P-0313, 2-(dimethylamino)-6-[3-[3-1[[ethyl(methyl)sulfamoyl]amino]-2,6-difluoro-benzoyl]-1H-pyrrolo[2,3-b]pyridin-5-yl]quinazoline]
< 0.1	< 1	CCN(C)S(=O)(=O)Nc1ccc(F)c(C(=O)c2c[nH]c3ncc(-c4cnc(N5CCN(C)CC5)nc4)cc23)c1F [Compound P-0263, 3-[3-[[ethyl(methyl)sulfamoyl]amino]-2,6-difluoro-benzoyl]-5-[2-(4-methylpiperazin-1-yl)pyrimidin-5-yl]-1H-pyrrolo[2,3-b]pyridine]
